Patent US20230085307A1, “PYRIDAZINONE COMPOUND AND HERBICIDE” (NISSAN CHEMICAL CORPORATION, priority 2019, published 2023)

Legend:
barnyard grass [1] = test: Test Example 3: herbicidal effect by foliage application, Wagner pot (Table 18, symbol H); type: in vivo, barnyard grass (Echinochloa crus-galli); conditions: 320 g/ha
In short: (§1)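 Plants were sown in alluvial soil held under 0.1–0.5 cm standing water and grown 14 days in a greenhouse at 25–30 °C. An emulsifiable formulation, water-diluted to the set dose, was then sprayed onto the foliage, and effects were scored three weeks later using previously defined criteria.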

rice flat sedge = test: Test Example 3: herbicidal effect by foliage application, Wagner pot (Table 18, symbol E); type: in vivo, rice flat sedge (Cyperus iria); conditions: 320 g/ha
In short: as §1

Japanese bulrush [2] = test: Test Example 2: herbicidal activity, application during weed generation under submerged conditions (Table 17, symbol B); type: in vivo, Japanese bulrush (Schoenoplectus juncoides); conditions: AAH 320 g/ha; application during weed generation, submerged conditions
Description: (§2) [Test Example 2] Herbicidal Activity Test by Application during Weed Generation under Submerged Conditions After alluvial soil was placed into 1/10000 are of Wagner pot, water was poured and mixed to form a submerged condition having a water depth of 4 cm. Seeds of late watergrass, Japanese bulrush, and oval-leafed pondweed were sowed in a mixed manner in the aforementioned pot, and the pot was placed in a greenhouse at 25° C. to 30° C. for growth of the plants. When late watergrass, Japanese bulrush, and oval-leafed pondweed were grown to one leaf stage to two leaf stage, the emulsion agent of the compound of the present invention prepared according to Formulation Example 2 was diluted with water so as to achieve a predetermined herbicide amount, and the diluted emulsion agent was applied to the surface of the water. Three weeks after the herbicide application, the effect of the herbicide on each plant was evaluated according to the criteria of Test Example 1.

oval-leafed pondweed [3] = test: Test Example 2: herbicidal activity, application during weed generation under submerged conditions (Table 17, symbol C); type: in vivo, oval-leafed pondweed (Monochoria vaginalis); conditions: AAH 320 g/ha; application during weed generation, submerged conditions
Description: as §2

Chinese sprangletop = test: Test Example 3: herbicidal effect by foliage application, Wagner pot (Table 18, symbol D); type: in vivo, chinese sprangletop (Leptochloa chinensis); conditions: 320 g/ha
In short: as §1

late watergrass [4] = test: Test Example 2: herbicidal activity, application during weed generation under submerged conditions (Table 17, symbol A); type: in vivo, late watergrass (Echinochloa oryzicola); conditions: AAH 320 g/ha; application during weed generation, submerged conditions
Description: as §2

blackgrass [5] = test: Test Example 5: herbicidal effect by foliage application, plastic box (Table 20, symbol J); type: in vivo, blackgrass (Alopecurus myosuroides); conditions: foliage application, 320 g/ha, 3 weeks after application
In short: (§3)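 Plants were sown into sterilized diluvial soil under about 1.5 cm cover and kept in a greenhouse at 25° C. to 30° C. Fourteen days on, foliage received an even spray of the diluted emulsion. Herbicidal or crop effect was judged three weeks afterwards.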

blackgrass [6] = test: Test Example 4: herbicidal effect by soil treatment (Table 19, symbol J); type: in vivo, blackgrass (Alopecurus myosuroides); conditions: AAH 320 g/ha
In short: (§4)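 In this soil treatment, the formulated compound reached the seeds only through the soil: seeds were buried about 1.5 cm deep in sterilized diluvial soil, then the diluted emulsion was sprayed over the surface. After three weeks at 25° C. to 30° C. in a greenhouse, effects were graded on criteria from an earlier test.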

barnyard grass [7] = test: Test Example 5: herbicidal effect by foliage application, plastic box (Table 20, symbol H); type: in vivo, barnyard grass (Echinochloa crus-galli); conditions: foliage application, 320 g/ha, 3 weeks after application
In short: as §3

southern crabgrass [8] = test: Test Example 4: herbicidal effect by soil treatment (Table 19, symbol F); type: in vivo, southern crabgrass (Digitaria ciliaris); conditions: AAH 320 g/ha
In short: as §4

Japanese bulrush [9] = test: Test Example 1: herbicidal activity, application before weed generation under submerged conditions (Table 16, symbol B); type: in vivo, Japanese bulrush (Schoenoplectus juncoides); conditions: 320 g/ha applied herbicide
In short: (§5)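 Submerged Wagner pots (alluvial soil, 4 cm water) sown with weed seeds and planted with 2.5-leaf rice seedlings; emulsifiable concentrate diluted in water applied to water surface on sowing day. Held in greenhouse at 25-30 °C; injury scored 0-5 by herbicidal rate after three weeks.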

green foxtail [10] = test: Test Example 4: herbicidal effect by soil treatment (Table 19, symbol G); type: in vivo, green foxtail (Setaria viridis); conditions: AAH 320 g/ha
In short: as §4

Italian ryegrass [11] = test: Test Example 5: herbicidal effect by foliage application, plastic box (Table 20, symbol K); type: in vivo, Italian ryegrass (Lolium multiflorum); conditions: foliage application, 320 g/ha, 3 weeks after application
In short: as §3

velvetleaf [12] = test: Test Example 5: herbicidal effect by foliage application, plastic box (Table 20, symbol M); type: in vivo, velvetleaf (Abutilon theophrasti); conditions: foliage application, 320 g/ha, 3 weeks after application
In short: as §3

barnyard grass [13] = test: Test Example 4: herbicidal effect by soil treatment (Table 19, symbol H); type: in vivo, barnyard grass (Echinochloa crus-galli); conditions: AAH 320 g/ha
In short: as §4

oval-leafed pondweed [14] = test: Test Example 1: herbicidal activity, application before weed generation under submerged conditions (Table 16, symbol C); type: in vivo, oval-leafed pondweed (Monochoria vaginalis); conditions: 320 g/ha applied herbicide
In short: as §5

Italian ryegrass [15] = test: Test Example 4: herbicidal effect by soil treatment (Table 19, symbol K); type: in vivo, Italian ryegrass (Lolium multiflorum); conditions: AAH 320 g/ha
In short: as §4

late watergrass [16] = test: Test Example 1: herbicidal activity, application before weed generation under submerged conditions (Table 16, symbol A); type: in vivo, late watergrass (Echinochloa oryzicola); conditions: 320 g/ha applied herbicide
In short: as §5

lambsquarters [17] = test: Test Example 4: herbicidal effect by soil treatment (Table 19, symbol O); type: in vivo, lambsquarters (Chenopodium album); conditions: AAH 320 g/ha
In short: as §4

wild oat [18] = test: Test Example 5: herbicidal effect by foliage application, plastic box (Table 20, symbol I); type: in vivo, wild oat (Avena fatua); conditions: foliage application, 320 g/ha, 3 weeks after application
In short: as §3

redroot pigweed = test: Test Example 4: herbicidal effect by soil treatment (Table 19, symbol N); type: in vivo, redroot pigweed (Amaranthus retroflexus); conditions: AAH 320 g/ha
In short: as §4

wild oat [19] = test: Test Example 4: herbicidal effect by soil treatment (Table 19, symbol I); type: in vivo, wild oat (Avena fatua); conditions: AAH 320 g/ha
In short: as §4

persian speedwell [20] = test: Test Example 4: herbicidal effect by soil treatment (Table 19, symbol R); type: in vivo, Persian speedwell (Veronica persica); conditions: AAH 320 g/ha
In short: as §4

green foxtail [21] = test: Test Example 5: herbicidal effect by foliage application, plastic box (Table 20, symbol G); type: in vivo, green foxtail (Setaria viridis); conditions: foliage application, 320 g/ha, 3 weeks after application
In short: as §3

chickweed = test: Test Example 4: herbicidal effect by soil treatment (Table 19, symbol P); type: in vivo, common chickweed (Stellaria media); conditions: AAH 320 g/ha
In short: as §4

southern crabgrass [22] = test: Test Example 5: herbicidal effect by foliage application, plastic box (Table 20, symbol F); type: in vivo, southern crabgrass (Digitaria ciliaris); conditions: foliage application, 320 g/ha, 3 weeks after application
In short: as §3

persian speedwell [23] = test: Test Example 5: herbicidal effect by foliage application, plastic box (Table 20, symbol R); type: in vivo, Persian speedwell (Veronica persica); conditions: foliage application, 320 g/ha, 3 weeks after application
In short: as §3

lambsquarters [24] = test: Test Example 5: herbicidal effect by foliage application, plastic box (Table 20, symbol O); type: in vivo, lambsquarters (Chenopodium album); conditions: foliage application, 320 g/ha, 3 weeks after application
In short: as §3

velvetleaf [25] = test: Test Example 4: herbicidal effect by soil treatment (Table 19, symbol M); type: in vivo, velvetleaf (Abutilon theophrasti); conditions: AAH 320 g/ha
In short: as §4

Structure (SMILES): COC(=O)COc1ccc(-c2sc3ccccc3c2-c2c(O)c(C)nn(C)c2=O)cc1 [1-232]
- herbicidal effect on H (barnyard grass), rating 0-5 (barnyard grass [1]): 3 (Herbicidal rate of 40% or more and less than 70%)
- herbicidal effect on E (rice flat sedge), rating 0-5 (rice flat sedge): 3 (Herbicidal rate of 40% or more and less than 70%)
- herbicidal effect rating, B: Japanese bulrush (Japanese bulrush [2]): 0 (Herbicidal rate of 5% or less (almost no effect))
- herbicidal effect rating, C: oval-leafed pondweed (oval-leafed pondweed [3]): 0 (Herbicidal rate of 5% or less (almost no effect))
- herbicidal effect on D (Chinese sprangletop), rating 0-5 (Chinese sprangletop): 3 (Herbicidal rate of 40% or more and less than 70%)
- herbicidal effect rating, A: late watergrass (late watergrass [4]): 3 (Herbicidal rate of 40% or more and less than 70%)

Structure (SMILES): C=CCOCc1ccc(-c2sc3ccccc3c2-c2c(O)c(C)nn(C)c2=O)cc1 [1-241]
- effect on blackgrass (J) (blackgrass [5]): 3 (Herbicidal rate of 40% or more and less than 70%)
- J: blackgrass, herbicidal effect rating (blackgrass [6]): 2 (Herbicidal rate of 20% or more and less than 40%)
- effect on barnyard grass (H) (barnyard grass [7]): 4 (Herbicidal rate of 70% or more and less than 90%)
- F: southern crabgrass, herbicidal effect rating (southern crabgrass [8]): 1 (Herbicidal rate of 5% or more and less than 20%)
- Herbicidal effect on B: Japanese bulrush (grade 0-5) (Japanese bulrush [9]): 3 (Herbicidal rate of 40% or more and less than 70%)
- herbicidal effect on H (barnyard grass), rating 0-5 (barnyard grass [1]): 5 (Herbicidal rate of 90% or more (almost completely withered))
- G: green foxtail, herbicidal effect rating (green foxtail [10]): 3 (Herbicidal rate of 40% or more and less than 70%)
- herbicidal effect on E (rice flat sedge), rating 0-5 (rice flat sedge): 4 (Herbicidal rate of 70% or more and less than 90%)
- effect on Italian ryegrass (K) (Italian ryegrass [11]): 5 (Herbicidal rate of 90% or more (almost completely withered))
- herbicidal effect rating, B: Japanese bulrush (Japanese bulrush [2]): 3 (Herbicidal rate of 40% or more and less than 70%)
- effect on velvetleaf (M) (velvetleaf [12]): 5 (Herbicidal rate of 90% or more (almost completely withered))
- H: barnyard grass, herbicidal effect rating (barnyard grass [13]): 3 (Herbicidal rate of 40% or more and less than 70%)
- Herbicidal effect on C: oval-leafed pondweed (grade 0-5) (oval-leafed pondweed [14]): 2 (Herbicidal rate of 20% or more and less than 40%)
- K: Italian ryegrass, herbicidal effect rating (Italian ryegrass [15]): 3 (Herbicidal rate of 40% or more and less than 70%)
- Herbicidal effect on A: late watergrass (grade 0-5) (late watergrass [16]): 0 (Herbicidal rate of 5% or less (almost no effect))
- O: lambsquarters, herbicidal effect rating (lambsquarters [17]): 4 (Herbicidal rate of 70% or more and less than 90%)
- effect on wild oat (I) (wild oat [18]): 0 (Herbicidal rate of 5% or less (almost no effect))
- N: redroot pigweed, herbicidal effect rating (redroot pigweed): 5 (Herbicidal rate of 90% or more (almost completely withered))
- I: wild oat, herbicidal effect rating (wild oat [19]): 0 (Herbicidal rate of 5% or less (almost no effect))
- R: persian speedwell, herbicidal effect rating (persian speedwell [20]): 5 (Herbicidal rate of 90% or more (almost completely withered))
- effect on green foxtail (G) (green foxtail [21]): 5 (Herbicidal rate of 90% or more (almost completely withered))
- P: chickweed, herbicidal effect rating (chickweed): 3 (Herbicidal rate of 40% or more and less than 70%)
- effect on southern crabgrass (F) (southern crabgrass [22]): 2 (Herbicidal rate of 20% or more and less than 40%)
- effect on persian speedwell (R) (persian speedwell [23]): 5 (Herbicidal rate of 90% or more (almost completely withered))
- effect on lambsquarters (O) (lambsquarters [24]): 4 (Herbicidal rate of 70% or more and less than 90%)
- herbicidal effect on D (Chinese sprangletop), rating 0-5 (Chinese sprangletop): 3 (Herbicidal rate of 40% or more and less than 70%)
- M: velvetleaf, herbicidal effect rating (velvetleaf [25]): 0 (Herbicidal rate of 5% or less (almost no effect))
- herbicidal effect rating, A: late watergrass (late watergrass [4]): 3 (Herbicidal rate of 40% or more and less than 70%)
